In a melting point compilation (Tetko et al.; mined from patent text by program, amines drawn as free bases though some values may be those of a salt):

Row | melting point [°C] | SMILES
1 | 114 to 116 | CC(C)(CO)NC(=O)c1cc(F)c(F)cc1F
2 | 208 to 210 | COCCNC(=O)c1c(O)c2ccccc2n(C)c1=N
3 | 35 to 38 | CC(C)(CO[N+](=O)[O-])C(=O)N1C(C(=O)O)CSC1c1ccccc1 (configuration not stated)
4 | 71 to 72 | CSc1ccc(C2=NNC(C(=O)OC(C)(C)C)S2)cc1 (configuration not stated)
5 | 227 to 228 | COc1ccc(OC)c2c1C(=O)c1c(C)oc(C)c1C2=O
6 | 118 to 120 | CCOC(=O)c1c(Oc2ccc(Cl)cc2N)c2ccccc2n1C
7 | 56 to 57.5 | CCC(=NO)c1ccc(Cl)cc1
8 | 107 to 108 | CC(C)(CCNS(=O)(=O)c1ccc(Cl)cc1)CC(=O)O
9 | 183 to 185 | OCC1CCN(c2ccncc2)CC1
10 | 140 | CCOC(=O)C1=C(C)NC(N)=C(C(=O)OCC)C1C (configuration not stated)
11 | 162 to 164 | Cc1ccc(S(=O)(=O)C(CC=Cc2ccc(Cl)cc2)C(=O)O)cc1 (configuration not stated)
12 | 136 to 138 | COc1ccc2c(c1)c(CC(=O)OCC(=O)O)c(C)n2C(=O)c1cccc(C(F)(F)F)c1
13 | 100 to 101 | CCOC(=O)C1COc2c(C(=O)c3ccccc3)cc(Br)cc21 (configuration not stated)
14 | 189 to 190 | C=CCc1c(O)c(C(=O)OC)cc(Cl)c1NC(C)=O
15 | 74 to 76 | CCc1cc2c(cc1CC)C(=O)C(N=[N+]=[N-])=CC2=O
16 | 175 | NC(=O)NC(=O)c1ccccc1
17 | 182 to 184 | O=C(O)c1cccc2c1CCc1ccsc1-2
18 | 93 to 95 | CC(=O)c1ccc(-c2ccc(F)cc2F)c(N)c1
19 | 152 to 153 | CN(C)c1ccc(/C=C/c2c(F)cccc2F)c([N+](=O)[O-])c1
20 | 207 to 211 | CC(C)(C)OC(=O)N1CCC(c2nc3cc(-c4ccc(-n5cnnn5)cc4)ccc3o2)CC1
21 | 190 to 195 | O=C(C(=O)N1CCC(N2CCCCC2)CC1)c1ccc2n1Cc1ccccc1N(C(=O)c1ccc(C3CCCCC3)cc1)C2
22 | 122 to 126 | CNC(=O)CCCCc1csc(NC(N)=NCC(F)(F)F)n1
23 | 131 to 133 | C=C(C(=O)NC1CCCCC1)c1ccccc1
24 | 129 to 132 | CCC(=O)Nc1cscn1
25 | 158 to 160 | C#CCc1c(C)nc2c(OCc3c(C)cccc3NC(=O)C(C)=O)cccn12

Row | melting point [°C] | SMILES
26 | 47 to 50 | CN1CCC(c2cccc3ccc(C(=O)NCCCc4ccccc4)cc23)CC1
27 | 110 to 113 | CCCCc1oc2ccccc2c1C(=O)N(C)Cc1ccc2cc(O)ccc2c1
28 | 125 to 128 | O=C(Nc1ccccc1)C(=O)N1CCC(Cc2ccccc2)CC1
29 | 244 to 246 | O=C(NCc1ccccc1)NNC(=O)c1ccc(Cl)cc1
30 | 205 to 206 | Nc1ccc(S(=O)(=O)N2CCCC(c3ccc(Cl)cc3)=N2)cc1
31 | 144 to 145 | CCOc1cc(COc2nn(Cc3ccccc3)cc2C=O)ccc1OCc1nc(-c2ccco2)oc1C
32 | 98 to 99 | O=C(O)CCc1ccccc1OCCCCCOc1ccc2c(c1CCCc1ccccc1)OCCC2=O
33 | 143 to 146 | COc1ccccc1Cn1c(=O)[nH]c2cc(Cl)cc(Cl)c2c1=O
34 | 220 to 221 | ON=Cc1ccc2c(c1)ncn2-c1cccc(-c2ccncn2)c1
35 | 179 to 180 | CN(C(=O)CNc1cc(-c2ccccc2)nc(-c2ccc(C(F)(F)F)cc2)n1)C1CC1
36 | 122 to 123 | CCCCc1nc(Cl)c(Cl)[nH]1
37 | 115 to 117 | N#Cc1nc(NC2CCCCC2)c2ncn(CCn3ccnc3)c2n1
38 | 202 to 203 | CC(=O)Nc1ccc(C(=S)N2CCCCC2)cc1
39 | 152 | CC(C)(C)OC(=O)CCc1ccnc(-c2nc(=O)c3ccc(Cl)cc3s2)c1
40 | 174 to 176 | CCOc1cc2c(Nc3cc(OC)c(Cl)cc3Cl)c(C#N)cnc2cc1OCCC1CCN(C)CC1
41 | 66 to 68 | N#Cc1cc(C(Cl)(Cl)Cl)ccc1Cl
42 | 122 to 123 | Cc1c(NC(=O)c2ccc(OCC3CCOC3)cc2)ccc2cc(CNCC3CCOCC3)cnc12 (configuration not stated)
43 | 222 to 223 | Nc1cc(Cl)nc(S(=O)Cc2ccc3ccccc3c2)n1 (configuration not stated)
44 | 129 to 131 | COc1ccccc1S(=O)C1CC(=O)N1CC(=O)CCc1ccccc1 (configuration not stated)
45 | 87 to 90 | CS(=O)(=O)c1ccc(-n2nc(C(F)(F)F)cc2-c2ccc(C#CCCCO)cc2)cc1
46 | 243 to 247 | O=C(O)Cc1c(C(=O)c2cccc(Cl)c2)[nH]c2ccc(Cl)cc12
47 | 245 to 247 | CN1CC(=O)Nc2ncccc2C1=O
48 | 170 to 172 | CN(N)c1ccc(-c2ccc(Cl)cc2)nn1
49 | 145 to 146 | NC(=O)CC(O)(Cn1cncn1)C(F)(F)C(F)(F)C(F)(F)C(F)(F)F (configuration not stated)
50 | 126 to 130 | CC(CO)(c1ccc(Cl)cc1)N1CCN(c2ccc(CO)c(Cl)c2)CC1 (configuration not stated)

Row | melting point [°C] | SMILES
51 | 123 to 125 | CCN(CC)c1nc2ccccc2n2c(C)nnc12
52 | 97 to 101 | CC(Cc1c[nH]c2ccccc12)(NC(=O)OC1C2CC3CC(C2)CC1C3)C(=O)NCCc1cnccn1 (configuration not stated)
53 | 94 to 95 | C=CCN(CC=C)c1nc(N(CC=C)CC=C)nc(N2CCN(C(=O)n3ccnc3)CC2)n1
54 | 178 to 181 | CCCSc1ncc(CC(NC(=O)CCC)C(=O)O)n1Cc1ccccc1Cl (configuration not stated)
55 | 144 to 146 | CNc1ncnc(N2CCc3ccccc3CC2)c1[N+](=O)[O-]
56 | 160 to 161 | CCC1(CC)CC(c2ccc(OC)c(OC)c2)=NN(C2CCN(C(=O)c3ccccc3)CC2)C1=O
57 | 169 to 171 | CC(C(=O)O)c1ccc2cc(OCc3nc4ccccc4s3)ccc2c1 (configuration not stated)
58 | 214 to 216 | c1cnc2ccc(Cn3cnc4ccc(-c5cn[nH]c5)nc43)cc2c1
59 | 199 to 200 | CC(CCC(O)C(C)(C)O)C1CCC2C3C(O)CC4CC(O)CCC4(C)C3CC(O)C12C (configuration not stated)
60 | 96 to 98 | Cc1nc(Cl)cc(C2(c3ccc(Cl)cc3)CCC2)n1
61 | 165 | Cc1cc(OCc2sc(-c3ccc(C(F)(F)F)cc3)nc2C)ccc1Cc1nn[nH]n1
62 | 170 | O=C1C2CCCCC2C2(c3ccccc3)NCCN12 (configuration not stated)
63 | 228 to 230 | Cc1nc2ccccc2c(=O)n1NC(=O)Nc1ccc(Cl)cc1
64 | 70 | CC(C)(C(=O)c1ccccc1)S(=O)(=O)c1ccccc1
65 | 223 to 225 | COc1ccc(Cn2nnnc2C(=O)Nc2cc(C#N)cc(NC(=O)c3nnnn3Cc3ccc(OC)cc3)c2Cl)cc1
66 | 111 to 113 | CCCCCCCCCCCCc1ccc(CCC(COC(C)=O)(COC(C)=O)NC(C)=O)cc1
67 | 121 to 123 | CC1c2ccccc2CCN1C(=O)c1cc2ncc(Br)cn2n1 (configuration not stated)
68 | 139 to 140 | COc1ccccc1Oc1c(NS(=O)(=O)c2ccc(C(C)(C)C)cc2)nc(SC)nc1OCCO
69 | 201 to 204 | CCc1nc2cc(C(=O)NC)c(Cl)cc2n1-c1ccc(CCOC(=O)NS(=O)(=O)c2ccc(C)cc2)cc1
70 | 128 to 130 | COC(=O)c1c(O)c(Br)c(Br)n1C
71 | 132 to 133 | COc1cc(OCC(=O)O)cc2c1C(Cl)=CC1(CCCCC1)O2
72 | 126 to 132 | O=C1c2ccccc2C(=O)N1CCCC1c2ccccc2C=Cc2ccccc21
73 | 164 | O=C1CCSC(=S)N1c1c(F)c(F)c(F)c(F)c1F
74 | 142 to 143 | CC(C)C1Cc2cnc3c(c2C1(O)CCN)CCO3 (configuration not stated)
75 | 103 to 107 | COC(=O)Cc1ccnc(NC=O)n1

Row | melting point [°C] | SMILES
76 | 135 to 139 | Cc1cc(-n2nc(C(F)(F)F)cc2-c2ccc(-c3ccco3)cc2)ccc1S(C)(=O)=O
77 | 162 to 163 | Cc1ccc(C(=O)NCCO)cc1-n1c(C)cc(OCc2ccccc2CNC(=O)Nc2cc(C(C)(C)C)nn2-c2cccc(OCCO)c2)c(Cl)c1=O
78 | 114 to 116 | O=C1Cc2ccccc2N1NCCCc1ccncc1F
79 | 113 to 116 | CC(C)(C)NS(=O)(=O)c1c(CO)nsc1OCC(F)(F)F
80 | 140 to 170 | N=C(N)NC1CCC(CCN2CCN(c3ccccc3)CC2)CC1 (configuration not stated)
81 | 172 to 174 | COc1cccc(Cl)c1C1C(=O)NC(C)(C(C)C)C1=O (configuration not stated)
82 | 67 to 70 | O=Cc1ccc(Oc2ccc3c(c2)OCO3)cc1
83 | 165 to 167 | CC(=Cc1ccsc1)N(O)C(N)=O
84 | 168 to 170 | Cc1cnc(C2=NC(C)(C(C)C)C(=O)N2)c(C(=O)c2cccs2)c1 (configuration not stated)
85 | 73 to 80 | COC(=O)c1ccc(CBr)c2occc12
86 | 255 to 256 | CCc1ccc2c(=O)c(C(N)=O)cn(C)c2c1
87 | > 280 | CCn1c(=O)c2[nH]c(/C=C/c3cc(C(F)(F)F)cc(C(F)(F)F)c3)nc2n(CC)c1=O
88 | 290 to 292 | Cc1nc2cc(C#N)cc(C#N)c2[nH]1
89 | 239 | O=C(Nc1cc(Cl)ccc1S(=O)(=O)c1ccc(Cl)cc1)N[C@@H](Cc1ccc(NC(=O)c2c(Cl)cccc2Cl)cc1)C(=O)O
90 | 119 to 120 | CCCC(=O)C1=C(O)CC(c2c(C)c(C)c(C)c3c2OC(C)C3C)CC1=O (configuration not stated)
91 | 98 to 100 | CCOC(=O)c1cc(=O)c2c(OCC(O)COc3ccc(Cl)cc3)cccc2o1 (configuration not stated)
92 | 154 to 155 | O=C(C1CCN(S(=O)(=O)c2ccc(Br)cc2)CC1)N1CCC(c2ccncc2)CC1
93 | 244 to 245 | COc1ccc(-c2nc(Sc3nc(-c4ccc(OC)cc4)c(-c4ccc(OC)cc4)[nH]3)[nH]c2-c2ccc(OC)cc2)cc1
94 | 141 to 142 | CS[C@H]([C@@H](C)C(=O)O)[C@@H]1CCCN1C(=O)OC(C)(C)C
95 | 96.5 to 98.5 | CCOc1ccc2ccc(F)c(F)c2c1F
96 | 57 to 59 | O=C1CCC(c2ccc(-c3ccc(F)cc3)o2)O1 (configuration not stated)
97 | 139 to 141 | CCC1(c2ccccc2)Cc2cc(OC)c(Cl)c(Cl)c2C1=O (configuration not stated)
98 | 213 to 214 | Oc1c(I)cc(-c2c3ccccc3cc3sc4ccccc4c23)cc1I
99 | 186 to 187 | COC(=O)c1ccccc1S(=O)(=O)NC(=O)Nc1nnc(SC)n(C)c1=O
100 | 84 to 86 | CC1CCCN1CCN1CCN(CCCN2CCCCC2)C1=C(C#N)C#N (configuration not stated)

Row | SMILES | melting point [°C]
101 | COc1ccc(C(CN(C)C)C2(O)CCCCC2)cc1 (configuration not stated) | 78.3 to 79.5
102 | CNC(C)Cc1ccc(CCCC(=O)O)cc1 (configuration not stated) | 170 to 172
